From patent US6706709B2, “Indolinone derivatives as protein kinase/phosphatase inhibitors” (Sugen, Inc., priority 2000, dated 2004)

Columns and labels:
[1] = molecular target: T1, EGF Receptor (Homo sapiens, UniProt P00533); assay: bio EGF (EGF Receptor ELISA); format: biochemical
T1 construct: expressed in transfected cells; host or cells: NIH 3T3/C7 (mouse fibroblasts engineered to express human EGF-R)
Outline: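 Cells engineered to express human EGFR, seeded in 0.5% serum for ~40 h, then exposed to drug (stock diluted to 1:200 final, 1% DMSO) before 5 min EGF stimulation at 25 nM final. Lysates captured on anti-EGFR-coated plates, and phosphotyrosine detected by anti-pTyr/HRP ELISA at 410 nm. Percent inhibition calculated relative to control wells after negative-control subtraction.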

[2] = molecular target: GST-Flk1 (UniProt P35918); assay: GST-FLK-1 bioassay (bio flkGST); format: biochemical
Outline: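 ELISA with Sf9-expressed GST-Flk1cd (5 ng/well) phosphorylating plate-coated poly(Glu,Tyr) 4:1 in Hepes pH 7.5 with MnCl2 and ATP (2 μM as 4× stock), 15 min at room temperature; EDTA stop. Phosphotyrosine detected with PY99-HRP and ABTS at 410 nm.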

T1 sequence (P00533 25-1210): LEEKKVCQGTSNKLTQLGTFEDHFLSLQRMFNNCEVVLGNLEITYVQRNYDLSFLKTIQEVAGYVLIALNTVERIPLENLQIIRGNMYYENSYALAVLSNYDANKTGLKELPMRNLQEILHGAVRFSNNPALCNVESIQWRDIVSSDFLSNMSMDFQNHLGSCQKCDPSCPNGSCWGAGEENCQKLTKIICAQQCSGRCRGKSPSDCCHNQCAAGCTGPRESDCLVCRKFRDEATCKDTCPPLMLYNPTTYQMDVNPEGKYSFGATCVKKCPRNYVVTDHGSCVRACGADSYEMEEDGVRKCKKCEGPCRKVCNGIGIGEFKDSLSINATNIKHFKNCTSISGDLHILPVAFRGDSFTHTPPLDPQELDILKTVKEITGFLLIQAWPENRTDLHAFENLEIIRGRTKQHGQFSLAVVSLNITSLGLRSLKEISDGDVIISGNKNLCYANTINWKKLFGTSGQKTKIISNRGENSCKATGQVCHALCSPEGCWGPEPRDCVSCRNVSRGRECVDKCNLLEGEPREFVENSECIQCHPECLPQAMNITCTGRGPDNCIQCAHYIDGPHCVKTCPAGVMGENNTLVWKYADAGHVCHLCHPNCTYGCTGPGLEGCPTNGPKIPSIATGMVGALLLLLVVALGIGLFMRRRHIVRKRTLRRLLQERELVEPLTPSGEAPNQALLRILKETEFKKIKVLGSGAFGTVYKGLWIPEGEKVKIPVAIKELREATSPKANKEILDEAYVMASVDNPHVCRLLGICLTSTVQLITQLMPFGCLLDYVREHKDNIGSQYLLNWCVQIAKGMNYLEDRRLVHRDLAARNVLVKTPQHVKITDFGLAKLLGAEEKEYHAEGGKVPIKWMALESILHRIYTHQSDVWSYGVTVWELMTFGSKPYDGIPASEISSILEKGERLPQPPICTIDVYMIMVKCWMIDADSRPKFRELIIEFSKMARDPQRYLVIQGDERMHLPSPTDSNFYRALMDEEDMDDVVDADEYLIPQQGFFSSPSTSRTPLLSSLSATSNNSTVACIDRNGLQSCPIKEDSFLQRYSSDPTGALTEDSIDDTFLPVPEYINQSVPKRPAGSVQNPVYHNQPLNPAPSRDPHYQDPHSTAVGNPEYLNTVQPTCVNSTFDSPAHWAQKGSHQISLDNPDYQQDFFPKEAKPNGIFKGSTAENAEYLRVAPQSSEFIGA

SMILES | IC50 [1] [µM] | IC50 [2] [µM]
O=C1Nc2ccc(S(=O)(=O)Nc3cccnc3)cc2C1=Cc1cc2cc(OCCN3CCCC3)ccc2[nH]1 [IN-045, 2-oxo-3-[5-(2-pyrrolidin-1-yl-ethoxy)-1H-indol-2-ylmethylene]-2,3-dihydro-1H-indole-5-sulfonic acid pyridin-3-ylamide] | 8.02 | 0.12
CN(C)S(=O)(=O)c1ccc2c(c1)C(=Cc1ccc3[nH]ccc3c1)C(=O)N2 [IN-074, 3-(1H-indol-5-ylmethylene)-2-oxo-2,3-dihydro-1H-indole-5-sulfonic acid dimethylamide] | > 100 | 1.58
O=C1Nc2ccc(S(=O)(=O)N3CCc4cc(Br)ccc43)cc2C1=Cc1cc2cc(OCCN3CCCC3)ccc2[nH]1 [IN-052, 5-(5-bromo-2,3-dihydro-indole-1-sulfonyl)-3-[5-(2-pyrrolidin-1-yl-ethoxy)-1H-indol-2-ylmethylene]-1,3-dihydro-indol-2-one] | 1.16 | 1.02
O=C1Nc2ccc(S(=O)(=O)N3CCCc4ccccc43)cc2C1=Cc1cc2cc(OCCN3CCCC3)ccc2[nH]1 [IN-050, 5-(3,4-dihydro-2H-quinoline-1-sulfonyl)-3-[5-(2-pyrrolidin-1-yl-ethoxy)-1H-indol-2-ylmethylene]-1,3-dihydro-indol-2-one] | 2.4 | 0.71
CN(C)S(=O)(=O)c1ccc2c(c1)C(=Cc1cc3ccccc3[nH]1)C(=O)N2 [IN-075, 3-(1H-indol-2-ylmethylene)-2-oxo-2,3-dihydro-1H-indole-5-sulfonic acid dimethylamide] | > 100 | 6.51
COc1ccc(-c2ccc3c(c2)NC(=O)C3=Cc2cc3cc(OCCN4CCCC4)ccc3[nH]2)cc1 [IN-026, 6-(4-methoxy-phenyl)-3-[5-(2-pyrrolidin-1-yl-ethoxy)-1H-indol-2-ylmethylene]-1,3-dihydro-indol-2-one] | > 20 | 0.76
O=C1Nc2cc(-c3ccccc3)ccc2C1=Cc1cc2cc(OCCN3CCOCC3)ccc2[nH]1 [IN-009, 3-[5-(2-morpholin-4-yl-ethoxy)-1H-indol-2-ylmethylene]-6-phenyl-1,3-dihydro-indol-2-one] | > 100 | 9.42
CNS(=O)(=O)c1ccc2c(c1)C(=Cc1cc3cc(OCCN4CCOCC4)ccc3[nH]1)C(=O)N2 [IN-053, 3-[5-(2-morpholin-4-yl-ethoxy)-1H-indol-2-ylmethylene]-2-oxo-2,3-dihydro-1H-indole-5-sulfonic acid methylamide] | 15.2 | 1.21
CN(C)S(=O)(=O)c1ccc2c(c1)C(=Cc1cc3cc(OCCN4CCOCC4)ccc3[nH]1)C(=O)N2 [IN-054, 3-[5-(2-morpholin-4-yl-ethoxy)-1H-indol-2-ylmethylene]-2-oxo-2,3-dihydro-1H-indole-5-sulfonic acid dimethylamide] | > 20 | 4.28
CCN(CC)CCOc1ccc2[nH]c(C=C3C(=O)Nc4ccc(Br)cc43)cc2c1 [IN-017, 5-bromo-3-[5-(2-diethylamino-ethoxy)-1H-indol-2-ylmethylene]-1,3-dihydro-indol-2-one] | 4.67 | 0.01
O=C1Nc2cc(-c3cccnc3)ccc2C1=Cc1cc2cc(OCCN3CCOCC3)ccc2[nH]1 [IN-034, 3-[5-(2-morpholin-4-yl-ethoxy)-1H-indol-2-ylmethylene]-6-pyridin-3-yl-1,3-dihydro-indol-2-one] | > 20 | 14
O=C1Nc2ccc(C(=O)O)cc2C1=Cc1cc2cc(OCCN3CCOCC3)ccc2[nH]1 [IN-030, 3-[5-(2-morpholin-4-yl-ethoxy)-1H-indol-2-ylmethylene]-2-oxo-2,3-dihydro-1H-indole-5-carboxylic acid] | > 20 | < 0.009
O=C1Nc2ccc(S(=O)(=O)N3CCc4ccccc43)cc2C1=Cc1cc2cc(OCCN3CCOCC3)ccc2[nH]1 [IN-058, 5-(2,3-dihydro-indole-1-sulfonyl)-3-[5-(2-morpholin-4-yl-ethoxy)-1H-indol-2-ylmethylene]-1,3-dihydro-indol-2-one] | > 20 | 8.49
CCN(CC)CCCc1ccc2[nH]c(C=C3C(=O)Nc4ccccc43)cc2c1 [IN-001, 3-[5-(3-diethylamino-propyl)-1H-indol-2-ylmethylene]-1,3-dihydro-indol-2-one] | > 100 | 0.86
COc1cccc(-c2ccc3c(c2)NC(=O)C3=Cc2cc3cc(OCCN4CCOCC4)ccc3[nH]2)c1 [IN-036, 6-(3-methoxy-phenyl)-3-[5-(2-morpholin-4-yl-ethoxy)-1H-indol-2-ylmethylene]-1,3-dihydro-indol-2-one] | > 20 | > 20

Other lines, results leading:

IC50 [1] [µM] | IC50 [2] [µM] | SMILES
> 20 | 8.55 | CN(c1cccc(Cl)c1)S(=O)(=O)c1ccc2c(c1)C(=Cc1cc3cc(OCCN4CCOCC4)ccc3[nH]1)C(=O)N2 [IN-060, 3-[5-(2-morpholin-4-yl-ethoxy)-1H-indol-2-ylmethylene]-2-oxo-2,3-dihydro-1H-indole-5-sulfonic acid (3-chloro-phenyl)-methyl-amide]
22 | 11.5 | CNS(=O)(=O)c1ccc2c(c1)C(=Cc1cc3ccccc3[nH]1)C(=O)N2 [IN-071, 3-(1H-indol-2-ylmethylene)-2-oxo-2,3-dihydro-1H-indole-5-sulfonic acid methylamide]
> 100 | 5.41 | CCN(CC)CCOc1ccc2[nH]c(C=C3C(=O)Nc4cc(-c5ccccc5)ccc43)cc2c1 [IN-018, 3-[5-(2-diethylamino-ethoxy)-1H-indol-2-ylmethylene]-6-phenyl-1,3-dihydro-indol-2-one]
> 100 | 2.33 | CNS(=O)(=O)c1ccc2c(c1)C(=Cc1ccc3[nH]ccc3c1)C(=O)N2 [IN-070, 3-(1H-indol-5-ylmethylene)-2-oxo-2,3-dihydro-1H-indole-5-sulfonic acid methylamide]
> 20 | 1.47 | O=C1Nc2ccc(-c3ccccc3)cc2C1=Cc1cc2cc(OCCN3CCOCC3)ccc2[nH]1 [IN-032, 3-[5-(2-morpholin-4-yl-ethoxy)-1H-indol-2-ylmethylene]-5-phenyl-1,3-dihydro-indol-2-one]
> 20 | 0.14 | O=C1Nc2ccc(C(=O)O)cc2C1=Cc1cc2cc(OCCN3CCCC3)ccc2[nH]1 [IN-022, 2-oxo-3-[5-(2-pyrrolidin-1-yl-ethoxy)-1H-indol-2-ylmethylene]-2,3-dihydro-1H-indole-5-carboxylic acid]
> 100 | 3.99 | NS(=O)(=O)c1ccc2c(c1)C(=Cc1ccc3[nH]ccc3c1)C(=O)N2 [IN-067, 3-(1H-indol-5-ylmethylene)-2-oxo-2,3-dihydro-1H-indole-5-sulfonic acid amide]
1.97 | 0.22 | O=C1Nc2ccc(Br)cc2C1=Cc1cc2cc(OCCN3CCOCC3)ccc2[nH]1 [IN-008, 5-bromo-3-[5-(2-morpholin-4-yl-ethoxy)-1H-indol-2-ylmethylene]-1,3-dihydro-indol-2-one]
4.35 | 0.27 | CC(C)NS(=O)(=O)c1ccc2c(c1)C(=Cc1cc3cc(OCCN4CCCC4)ccc3[nH]1)C(=O)N2 [IN-043, 2-oxo-3-[5-(2-pyrrolidin-1-yl-ethoxy)-1H-indol-2-ylmethylene]-2,3-dihydro-1H-indole-5-sulfonic acid isopropylamide]
> 20 | > 20 | O=C1Nc2ccc(S(=O)(=O)Nc3cccnc3)cc2C1=Cc1cc2cc(OCCN3CCOCC3)ccc2[nH]1 [IN-057, 3-[5-(2-morpholin-4-yl-ethoxy)-1H-indol-2-ylmethylene]-2-oxo-2,3-dihydro-1H-indole-5-sulfonic acid pyridin-3-ylamide]
> 20 | < 0.01 | O=C1Nc2cccc(CCO)c2C1=Cc1cc2cc(OCCN3CCCC3)ccc2[nH]1 [IN-024, 4-(2-hydroxy-ethyl)-3-[5-(2-pyrrolidin-1-yl-ethoxy)-1H-indol-2-ylmethylene]-1,3-dihydro-indol-2-one]
1.69 | 0.18 | O=C1Nc2ccc(S(=O)(=O)Nc3ccccc3)cc2C1=Cc1cc2cc(OCCN3CCCC3)ccc2[nH]1 [IN-044, 2-oxo-3-[5-(2-pyrrolidin-1-yl-ethoxy)-1H-indol-2-ylmethylene]-2,3-dihydro-1H-indole-5-sulfonic acid phenylamide]
> 100 | 1.95 | CN(C)CCOc1ccc2[nH]c(C=C3C(=O)Nc4cc(-c5ccccc5)ccc43)cc2c1 [IN-012, 3-[5-(2-dimethylamino-ethoxy)-1H-indol-2-ylmethylene]-6-phenyl-1,3-dihydro-indol-2-one]
> 20 | 14.3 | O=C1Nc2ccc(S(=O)(=O)N3CCc4ccccc4C3)cc2C1=Cc1cc2cc(OCCN3CCOCC3)ccc2[nH]1 [IN-063, 5-(3,4-dihydro-1H-isoquinoline-2-sulfonyl)-3-[5-(2-morpholin-4-yl-ethoxy)-1H-indol-2-ylmethylene]-1,3-dihydro-indol-2-one]
61.3 | 1.56 | CCN(CC)CCCc1ccc2[nH]c(C=C3C(=O)Nc4cc(-c5ccccc5)ccc43)cc2c1 [IN-003, 3-[5-(3-diethylamino-propyl)-1H-indol-2-ylmethylene]-6-phenyl-1,3-dihydro-indol-2-one]
> 100 | 12.8 | CNS(=O)(=O)c1ccc2c(c1)C(=Cc1c(C)[nH]c3ccccc13)C(=O)N2 [IN-069, 3-(2-methyl-1H-indol-3-ylmethylene)-2-oxo-2,3-dihydro-1H-indole-5-sulfonic acid methylamide]
